# According to article PMC3254257 (Bioconjugate Chemistry, 2011):
# Experiments:
# Aqueous solubility = format: physicochemical; conditions: water
# Stability in serum = format: in vitro ADME, bovine; conditions: 37°C; for relative serum stability: 100% FBS, 10 h
# [1] = Tetrazine cycloaddition kinetics with norbornene; format: physicochemical; conditions: PBS pH 7.4, 37°C, 5% DMSO, excess NB
# [2] = Tetrazine cycloaddition kinetics with TCO; format: physicochemical; conditions: among tetrazines of this study
SMILES,aqueous solubility (Aqueous solubility),"time to formation of a precipitate in FBS (Stability in serum; FBS, serum stability could not be measured) [h]",relative serum stability (Stability in serum),cycloaddition kinetics with NB compared to hydrogen substituted tetrazine 1 [1],relative cycloaddition kinetics with TCO [2]
"c1ccc(-c2nnc(-c3ccccc3)nn2)cc1 [3,6-diphenyl tetrazine, reference compound]",not soluble to any measurable amount,,,,
"Cl.NCc1ccc(-c2nnc(-c3ccccn3)nn2)cc1 [Tetrazine 3, (4-(6-(Pyridin-2-yl)-1,2,4,5-tetrazin-3-yl)phenyl)methanamine hydrochloride]",,1.5 to 2,,,
"Cl.NCc1ccc(-c2nnc(-c3ncccn3)nn2)cc1 [Tetrazine 4, (4-(6-(Pyrimidin-2-yl)-1,2,4,5-tetrazin-3-yl)phenyl)methanamine hydrochloride]",,,least stable,faster kinetics,
"Cc1nnc(CCCCCN)nn1.Cl [Tetrazine 6, 5-(6-Methyl-1,2,4,5-tetrazin-3-yl)pentan-1-amine hydrochloride]",extremely water soluble,,best serum stability,slower cycloaddition reactions,slowest reaction kinetics
